Measured values published in patent US20230266303A1, “SYSTEM” (GTINVENT LIMITED, priority 2020, published 2023).
Values joined by “and” are separate entries in the source; they are usually repeats but may differ in a detail not shown here. Equal entries are not always repeated. “Also recorded” adds a separate entry of the source.

Tested on: endogenous tau in dSH-SY5Y cells
Test: Western blot of whole lysate and Triton X-100 sequential extraction of endogenous tau
Assay type: cell-based, human
Details: 24 h
Procedure: Cells were detached from the coverslip by incubation in 0.25% trypsin-EDTA (Gibco™) and then mixed with 5 ml culture media. The cells were harvested by centrifugation at 500×g for 5 minutes and the supernatant was discarded. The cell pellet was resuspended in ice-cold PBS and centrifuged at 500×g at 4° C. Cells were lysed in 1% Triton lysis buffer (1% Triton X-100 (v/v), 150 mM NaCl and 50 mM Tris-HCl, pH 7.6) containing Halt™ protease inhibitors (Thermo Scientific) and phosphatase inhibitors (Thermo Scientific) for 15 minutes on ice. The samples were centrifuged at 16,000×g for 30 minutes at 4° C., and the supernatant was collected (Triton-soluble fraction). The pellet was resuspended in SDS lysis buffer (1% SDS (w/v), 150 mM NaCl and 50 mM Tris-HCl, pH 7.6) containing protease and phosphatase inhibitors. The samples were centrifuged at 16,000×g for 30 minutes at room temperature and the supernatant was collected (Triton-insoluble fraction). Protein concentration in the Triton-soluble fractions were determined using the Pierce™ BCA Protein Assay Kit (Thermo Scientific) according to the manufacturer's instructions.
For cell lysates, Triton-soluble protein (20 μg) and an equal volume of Triton-insoluble protein were each mixed with Læmmli sample buffer (4×) (Bio-Rad Laboratories) containing 5% (v/v) […] and heated at 95° C. for 5 minutes. For recombinant protein, 3 μg was mixed with sample buffer without reducing agent or boiling. All samples were centrifuged for five minutes at 1000×g and samples were loaded onto 4-20% Mini-PROTEAN® precast gels (Bio-Rad Laboratories) and run at 120 V for 1 h in Tris-glycine running buffer (25 mM Tris, 192 mM glycine, pH 8.3), or until the sample buffer reached the end of the gel. For Coomassie staining, the gel was washed three times in double distilled water for five minutes and stained with Imperial™ protein stain (Thermo Scientific) for 1 h and then destained overnight in double distilled water. The stained gel was scanned using an HP Photosmart C5280 scanner. For western blotting, the separated proteins on the gel were transferred to nitrocellulose membrane (0.45 μm) at 200 mA for 90 minutes. The membranes were blocked in 5% (w/v) bovine serum albumin (BSA) in Tris-buffered saline (50 mM Tris-HCl, pH7.4, 150 mM NaCl) containing 0.1% (v/v) Tween-20 (TBS-T) for 1 h rocking at room temperature. Membranes were incubated with primary antibodies diluted in 5% BSA in TBS-T overnight at 4° C. The following primary antibodies and dilutions were used; Anti-Tau (polyclonal, total tau) (Thermo Scientific) (1:2500), AT180 (anti-pT231) (Thermo Scientific) (1:1000), AT8 (anti-pS202-T205) (1:1000) (Thermo Scientific), anti-GAPDH (1:5000) (Abcam). […] Immunoreactive protein bands were detected using ECL substrate (Clarity™, Bio-Rad) and X-ray films were scanned using an HP Photosmart C5280 scanner. FIJI was used to quantify the bands in arbitrary densitometry units. The density of bands corresponding to full-length tau (50-70 kDa) were determined and normalised against amount of GAPDH. […] For the quantification of Triton-insoluble and soluble protein, the proportion of tau in the insoluble and soluble fraction was calculated using the equations insoluble/(soluble+insoluble) or soluble/(soluble+insoluble), respectively and expressed as a percentage of the respective soluble or insoluble control value. […]

[1] = whole lysate (RIPA), 1 μM soluble dGAE

dGAE: recombinant truncated tau, 95 residues fragment of Tau (2N4R), Ile-297 to Glu-391, SEQ ID NO: 4
proportion of AT180 tau in Triton-X 100 insoluble fraction, percentage of buffer-treated controls (soluble dGAE, buffer 100±0): 139.4±14.54% and 139.4±14.5%
proportion of AT180 tau in Triton-X 100 soluble fraction, percentage of buffer-treated controls (soluble dGAE, buffer 100±0): 82.98±5.48% and 83.0±5.5%
AT8 immunoreactivity vs buffer-treated control (western blot) [1]: no significant difference; also recorded: marginal increases
AT180 immunoreactivity vs buffer-treated control (western blot) [1]: no significant difference; also recorded: marginal increases
total tau immunoreactivity vs buffer-treated control (western blot) [1]: no significant difference; also recorded: no change
